According to PMC7144022, “Quinolinecarboxamides Inhibit the Replication of the Bovine Viral Diarrhea Virus by Targeting a Hot Spot for the Inhibition of Pestivirus Replication in the RNA-Dependent RNA Polymerase” (Molecules, 2020):

How the values were obtained:
[1] = Cytotoxicity assay, proliferation of exponentially growing MDBK cells (MTS/PMS); type: cell-based, bovine; details: bovine
Procedure: Assays were carried out, as described previously.

[2] = tested on: BVDV NADL virus; assay: CPE-based antiviral assay, BVDV NADL in MDBK cells (MTS/PMS); details: for EC50: Bovine viral diarrhea virus isolates and strains, MDBK, 72 h; for S.I.: selectivity index, CC50 vs EC50
[3] = sheet CSFCII#, potency relative to TO502-2403 (EC50 0.2 µM)
[4] = sheet CSFCI#, potency relative to TO505-6180 (EC50 0.07 µM)

Structure (SMILES)	CC50 at 5 days [1]	EC50 [2]	S.I. [2]	fold increase [2, 3]	fold increase [2, 4]
O=C(Nc1ccn(-c2ccccc2)n1)c1cc(-c2cccnc2)nc2ccccc12 [CSFC-99, O=C(Nc1ccn(n1)c1ccccc1)c1cc(nc2ccccc21)c1cccnc1]	72000 nM	53600 nM	1	0.00373	–
O=C(Nc1ccn(-c2ccccc2)n1)c1cc(-c2cccs2)nc2c(F)cccc12 [CSFC-100, O=C(Nc1ccn(n1)c2ccccc2)c4cc(nc3c(F)cccc34)c5cccs5]	> 100000 nM	50 nM	2000	4.00	–
Cc1cccc2sc(NC(=O)c3cc(-c4cccs4)nc4c(F)cccc34)nc12 [CSFC-101, Fc5cccc1c5nc(cc1C(=O)Nc2nc3c(C)cccc3s2)c4cccs4]	23200 nM	300 nM	77	0.67	–
O=C(Nc1ccn(-c2ccccc2)n1)c1cc(-c2ccccc2F)nc2c(F)cccc12 [CSFC-102, Fc1ccccc1c3nc2c(cccc2F)c(c3)C(=O)Nc4ccn(n4)c5ccccc5]	> 100000 nM	300 nM	333	0.67	–
Cc1cccc2sc(NC(=O)c3cc(-c4ccccc4F)nc4c(F)cccc34)nc12 [CSFC-103, Fc1ccccc1c3nc2c(cccc2F)c(c3)C(=O)Nc4nc5c(C)cccc5s4]	> 100000 nM	500 nM	200	0.40	–
O=C(Nc1ccn(-c2ccc(Cl)cc2)n1)c1cc(-c2ccco2)nc2c(F)cccc12 [CSFC-104, Clc1ccc(cc1)n2ccc(n2)NC(=O)c4cc(nc3c(F)cccc34)c5ccco5]	> 100000 nM	200 nM	500	1.00	–
Cc1c(-c2ccco2)nc2ccccc2c1C(=O)Nc1nc2c(C)cccc2s1 [CSFC-105, Cc2c(nc1ccccc1c2C(=O)Nc3nc4c(C)cccc4s3)c5ccco5]	> 100000 nM	700 nM	143	0.29	–
O=C(Nc1nnc(-c2ccccc2)s1)c1cc(-c2cccs2)nc2ccc(F)cc12 [CSFC-106, O=C(Nc1nnc(s1)c2ccccc2)c4cc(nc3ccc(F)cc34)c5cccs5]	> 100000 nM	2300 nM	43	0.09	–
COc1ccc(-c2cc(C(=O)Nc3ccn(-c4ccccc4)n3)c3ccccc3n2)cc1F [CSFC-107, COc1ccc(cc1F)c3nc2ccccc2c(c3)C(=O)Nc4ccn(n4)c5ccccc5]	> 100000 nM	600 nM	167	0.33	–
O=C(Nc1ccn(-c2ccccc2)n1)c1cc(-c2cnccn2)nc2ccccc12 [CSFC-108, O=C(c2cc(nc1ccccc12)c3cnccn3)Nc4ccn(n4)c5ccccc5]	> 100000 nM	200 nM	500	1.00	–
O=C(Nc1ccn(-c2ccccc2)n1)c1cc(-c2cccs2)nc2c(Cl)cccc12 [CSFC-109, O=C(Nc1ccn(n1)c2ccccc2)c4cc(nc3c(Cl)cccc34)c5cccs5]	13000 nM	200 nM	65	1.00	–
Cc1sc(NC(=O)c2cc(-c3ccccc3)nc3ccccc23)nc1-c1ccccc1 [CSFC-110, O=C(Nc2nc(c1ccccc1)c(C)s2)c4cc(nc3ccccc34)c5ccccc5]	> 100000 nM	300 nM	333	0.67	–
O=C(Nc1ccn(-c2ccccc2)n1)c1cc(-c2ccccc2Cl)nc2ccccc12 [CSFC-111, Clc1ccccc1c3nc2ccccc2c(c3)C(=O)Nc4ccn(n4)c5ccccc5]	> 100000 nM	400 nM	250	0.50	–
Cc1ccc(-c2cc(C(=O)Nc3ccn(-c4ccccc4)n3)c3ccccc3n2)cc1 [CSFC-112, Cc1ccc(cc1)c3nc2ccccc2c(c3)C(=O)Nc4ccn(n4)c5ccccc5]	> 100000 nM	100 nM	1000	2.00	–
Cc1cccc2sc(NC(=O)c3cc(-c4ccccc4Cl)nc4ccccc34)nc12 [CSFC-113, Clc1ccccc1c3nc2ccccc2c(c3)C(=O)Nc4nc5c(C)cccc5s4]	> 100000 nM	400 nM	250	0.50	–
Cc1ccc(-c2csc(NC(=O)c3cc(-c4ccccc4)nc4ccccc34)n2)cc1 [CSFC-114, O=C(Nc1nc(cs1)c2ccc(C)cc2)c4cc(nc3ccccc34)c5ccccc5]	> 100000 nM	1100 nM	91	0.18	–
Cc1cccc2sc(NC(=O)c3cc(-c4ccncc4)nc4ccccc34)nc12 [CSFC-115, Cc1cccc2sc(nc12)NC(=O)c4cc(nc3ccccc34)c5ccncc5]	> 100000 nM	200 nM	500	1.00	–
Cc1cccc2sc(NC(=O)c3cc(-c4cnccn4)nc4ccccc34)nc12 [CSFC-116, Cc1cccc2sc(nc12)NC(=O)c4cc(nc3ccccc34)c5cnccn5]	> 100000 nM	300 nM	333	0.67	–

Structure (SMILES)	CC50 at 5 days [1]	EC50 [2]	S.I. [2]	fold increase [2, 3]	fold increase [2, 4]
COc1ccc(-c2cc(C(=O)Nc3nc4c(C)cccc4s3)c3ccccc3n2)cc1 [CSFC-117, COc1ccc(cc1)c3nc2ccccc2c(c3)C(=O)Nc4nc5c(C)cccc5s4]	> 100000 nM	1700 nM	59	0.12	–
COc1ccc(-c2cc(C(=O)Nc3ccn(-c4ccccc4)n3)c3ccccc3n2)cc1 [CSFC-118, COc1ccc(cc1)c3nc2ccccc2c(c3)C(=O)Nc4ccn(n4)c5ccccc5]	> 100000 nM	300 nM	333	0.67	–
COc1ccc(-c2cc(C(=O)Nc3nc4c(C)cccc4s3)c3ccccc3n2)cc1F [CSFC-119, COc1ccc(cc1F)c3nc2ccccc2c(c3)C(=O)Nc4nc5c(C)cccc5s4]	> 100000 nM	2500 nM	40	0.08	–
Cc1ccc(-c2cc(C(=O)Nc3nc4c(C)cccc4s3)c3ccccc3n2)cc1 [CSFC-120, Cc1ccc(cc1)c3nc2ccccc2c(c3)C(=O)Nc4nc5c(C)cccc5s4]	> 100000 nM	200 nM	500	1.00	–
O=C(Nc1ccn(-c2ccccc2)n1)c1cc(-c2ccncc2)nc2ccccc12 [CSFC-121, O=C(Nc1ccn(n1)c1ccccc1)c1cc(nc2ccccc21)c1ccncc1]	> 100000 nM	100000 nM	1	0.002	–
O=C(Nc1ccn(-c2ccccc2)n1)c1cc(-c2cccs2)nc2ccc(Br)cc12 [CSFC-122, O=C(Nc1ccn(n1)c2ccccc2)c4cc(nc3ccc(Br)cc34)c5cccs5]	> 100000 nM	600 nM	167	0.33	–
O=C(Nc1ccn(-c2ccccc2)n1)c1cc(-c2ccc(F)cc2)nc2ccc(F)cc12 [CSFC-123, Fc1ccc(cc1)c3nc2ccc(F)cc2c(c3)C(=O)Nc4ccn(n4)c5ccccc5]	> 100000 nM	300 nM	333	0.67	–
O=C(Nc1ccn(-c2ccccc2F)n1)c1cc(-c2ccccc2)nc2ccccc12 [CSFC-125, Fc1ccccc1n2ccc(n2)NC(=O)c4cc(nc3ccccc34)c5ccccc5]	> 100000 nM	1600 nM	63	0.13	–
O=C(Nc1ccn(-c2cccc(F)c2)n1)c1cc(-c2ccccc2)nc2ccccc12 [CSFC-126, Fc1cccc(c1)n2ccc(n2)NC(=O)c4cc(nc3ccccc34)c5ccccc5]	> 100000 nM	600 nM	167	0.33	–
O=C(Nc1ccn(-c2cccc(F)c2)n1)c1cc(-c2cccnc2)nc2ccccc12 [CSFC-127, Fc1cccc(c1)n2ccc(n2)NC(=O)c4cc(nc3ccccc34)c5cccnc5]	> 100000 nM	100000 nM	–	0.002	–
O=C(Nc1ccn(-c2ccc(F)cc2)n1)c1cc(-c2ccccc2)nc2ccccc12 [CSFC-128, Fc1ccc(cc1)n2ccc(n2)NC(=O)c4cc(nc3ccccc34)c5ccccc5]	> 100000 nM	500 nM	200	0.40	–
O=C(Nc1ccn(-c2ccc(F)cc2)n1)c1cc(-c2cccnc2)nc2ccccc12 [CSFC-129, Fc1ccc(cc1)n2ccc(n2)NC(=O)c4cc(nc3ccccc34)c5cccnc5]	68000 nM	1400 nM	49	0.14	–
Cc1cccc(-n2ccc(NC(=O)c3cc(-c4cccnc4)nc4ccccc34)n2)c1 [CSFC-130, Cc1cccc(c1)n2ccc(n2)NC(=O)c4cc(nc3ccccc34)c5cccnc5]	5000 nM	20 nM	–	10.00	–
O=C(Nc1ccn(-c2ccccc2Cl)n1)c1cc(-c2ccccc2)nc2ccccc12 [CSFC-131, Clc1ccccc1n2ccc(n2)NC(=O)c4cc(nc3ccccc34)c5ccccc5]	> 100000 nM	100 nM	1000	2.00	–
O=C(Nc1ccn(-c2cccc(Cl)c2)n1)c1cc(-c2ccccc2)nc2ccccc12 [CSFC-132, Clc1cccc(c1)n2ccc(n2)NC(=O)c4cc(nc3ccccc34)c5ccccc5]	> 100000 nM	20 nM	–	10.00	–
Cc1cccc(-n2ccc(NC(=O)c3cc(-c4ccccc4)nc4ccccc34)n2)c1 [CSFC-133, Cc1cccc(c1)n2ccc(n2)NC(=O)c4cc(nc3ccccc34)c5ccccc5]	> 100000 nM	20 nM	–	10.00	–
O=C(Nc1ccccc1)c1cc(-c2ccccc2)nc2ccccc12 [CSFC-134, O=C(Nc1ccccc1)c1cc(nc2ccccc12)c1ccccc1]	> 100000 nM	> 100000 nM	1	–	0.0007
O=C(Nc1ccccc1O)c1cc(-c2ccccc2)nc2ccccc12 [CSFC-137, Oc1ccccc1NC(=O)c1cc(nc2ccccc12)c1ccccc1]	> 100000 nM	> 100000 nM	1	–	0.0007
